Measurements: patent US5221752A, “α-keto amide derivatives” (Nippon Kayaku Kabushiki Kaisha, priority 1990, dated 1993)
pIC50: −log10 of the molar value. *1 amine or outer side, *2 acyl side, *3 side chain or, on linkers, in order; H or OH if unused. Where a SMILES comes first, the peptide text is derived from it. [ ]: non-standard residue; d: D form. The star is where a group is joined. ξ: configuration not given here. X1 = O=C(C(=O)[*:2])C1CCCN1[*:1]; Cbz = O=C(OCc1ccccc1)*; ξV = CC(C)C(N)C(=O)O; OBn = c1ccc(CO*)cc1

Target: T1, prolyl endopeptidase (Sus scrofa, UniProt P23687)
T1 construct: prolyl endopeptidase obtained from porcine kidneys used as the enzyme; from tissue; host or cells: porcine kidneys
T1 sequence (P23687 whole entry): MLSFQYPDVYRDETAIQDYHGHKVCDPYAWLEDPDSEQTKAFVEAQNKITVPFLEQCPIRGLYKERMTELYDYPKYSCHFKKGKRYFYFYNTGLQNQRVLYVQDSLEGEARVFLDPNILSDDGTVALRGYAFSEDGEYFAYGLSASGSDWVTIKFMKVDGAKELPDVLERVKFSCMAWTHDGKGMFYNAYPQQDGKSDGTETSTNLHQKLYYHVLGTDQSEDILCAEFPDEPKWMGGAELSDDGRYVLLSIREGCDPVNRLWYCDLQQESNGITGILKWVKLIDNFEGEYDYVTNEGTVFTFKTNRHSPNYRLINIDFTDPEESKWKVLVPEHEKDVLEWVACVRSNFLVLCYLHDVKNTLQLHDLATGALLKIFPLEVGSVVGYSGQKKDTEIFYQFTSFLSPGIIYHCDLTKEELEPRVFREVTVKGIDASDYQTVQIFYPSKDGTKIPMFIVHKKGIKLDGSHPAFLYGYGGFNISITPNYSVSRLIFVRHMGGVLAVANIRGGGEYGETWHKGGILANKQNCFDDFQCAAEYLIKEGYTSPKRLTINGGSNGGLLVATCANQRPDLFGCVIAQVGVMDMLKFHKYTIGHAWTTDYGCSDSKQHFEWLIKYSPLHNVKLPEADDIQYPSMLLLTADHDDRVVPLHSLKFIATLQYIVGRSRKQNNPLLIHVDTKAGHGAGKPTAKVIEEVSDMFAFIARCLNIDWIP
Assay: Enzyme inhibiting activity (prolyl endopeptidase; substrate benzyloxycarbonylglycylproline β-naphthylamide)
Assay type: biochemical, porcine
Experimental: Experiments were conducted to evaluate the enzyme inhibiting activity of the compounds of the present invention by using prolyl endopeptidase as the enzyme model. They are given in the following Test Examples.
Method of Assaying Enzyme Inhibiting Activity
Benzyloxycarbonylglycylproline β-naphthylamide (0.1 mM) used as the substrate was reacted with prolyl endopeptidase obtained from porcine kidneys used as the enzyme in a 0.025 M tris(hydroxymethyl)methanamine hydrochloric acid solution (pH: 7.5) at 37° C. reaction mixture for 30 min and then the absorbance of the product at 525 nm was measured.

## CC(C)C[C@@H](NC(=O)C(=O)C1CCCN1C(=O)C(NC(=O)C(NC(=O)OCc1ccccc1)C(C)C)C(C)C)C(=O)NC(C(=O)OCc1ccccc1)C(C)C (stereo partly drawn) [Example 7, N-Benzyloxycarbonylvalylvalyl-[2-oxo-2-(pyrrolidin-2-yl)acetyl]-D-leucylvaline benzyl ester] (Cbz-[ξV][ξV][X1][dL][ξV]-OBn)
  pIC50: 8.05

## CC(C)C[C@@H](NC(=O)C(=O)C1CCCN1C(=O)C(NC(=O)C(N)C(C)C)C(C)C)C(=O)NC(C(=O)O)C(C)C (stereo partly drawn) [Example 8, Valylvalyl-[2 oxo 2-(pyrrolidin-2-yl)acetyl]-D-leucylvaline] (H-[ξV][ξV][X1][dL][ξV]-OH)
  pIC50: 7.70

## CC(C)C[C@@H](NC(=O)C(=O)C1CCCN1C(=O)CC(C)(C)C)C(=O)OC(C)(C)C (stereo partly drawn) [Example 14, [2-Oxo-2-(N-(3,3-dimethylbutanoyl)pyrrolidin-2-yl)-acetyl]-D-leucine t-butyl ester]
  pIC50: 7.66

## CC(C)C[C@@H](NC(=O)C(=O)C1CCCN1C(=O)OCc1ccccc1)C(=O)OC(C)(C)C (stereo partly drawn) [Example 15, [2-Oxo-2-(N-benzyloxycarbonylpyrrolidin-2-yl)acetyl]-D-leucine t-butyl ester]
  pIC50: 6.99

## CC(C)C[C@@H](NC(=O)C(=O)C1CCCN1C(=O)C(Cc1ccccc1)NC(=O)OCc1ccccc1)C(=O)OC(C)(C)C (stereo partly drawn) [Example 16, N-Benzyloxycarbonylphenylalanyl-[2-oxo-2-(pyrrolidin-2-yl)acetyl]-D-leucin t-butyl ester]
  pIC50: 8.47

## CC(C)C[C@@H](NC(=O)C(=O)C1CCCN1C(=O)C(Cc1ccccc1)NC(=O)OCc1ccccc1)C(=O)O (stereo partly drawn) [Example 17, N-Benzyloxycarbonylphenylalanyl-[2-oxo-2-(pyrrolidin-2-yl)acetyl)-D-leucine]
  pIC50: 8.62

## CC(C)C[C@@H](NC(=O)C(=O)C1CCCN1C(=O)C(Cc1ccccc1)NC(=O)OCc1ccccc1)C(=O)NC(C)(C)C (stereo partly drawn) [Example 19, N-Benzyloxycarbonylphenylalanyl-[2-oxo-2-(pyrrolidin-2-yl)acetyl]-D-leucinet-butylamide]
  pIC50: 8.63

## CC(C)C[C@@H](NC(=O)C(=O)C1CCCN1C(=O)C1CCCN1C(=O)OCc1ccccc1)C(=O)NC(C(=O)OCc1ccccc1)C(C)C (stereo partly drawn) [Example 20, N-Benzyloxycarbonylprolyl-[2-oxo-2-(pyrrolidin-2-yl)acetyl]-D-leucylvaline benzyl ester]
  pIC50: 8.49

## CC(C)(C)OC(=O)CNC(=O)C(=O)C1CCCN1C(=O)C(Cc1ccccc1)NC(=O)OCc1ccccc1 (stereo not drawn) [Example 21, N-Benzyloxycarbonylphenylalanyl-[2-oxo-2-(pyrrolidin-2-yl)acetyl]-glycine t-butyl ester]
  pIC50: 8.83

## O=C(O)CNC(=O)C(=O)C1CCCN1C(=O)C(Cc1ccccc1)NC(=O)OCc1ccccc1 (stereo not drawn) [Example 22, N-Benzyloxycarbonylphenylalanyl-[2-oxo-2-(pyrrolidin-2-yl)acetyl]-glycine]
  pIC50: 8.64

## CC(C)CC(NC(=O)C(=O)C1CCCN1C(=O)C(Cc1ccccc1)NC(=O)OCc1ccccc1)C(=O)OC(C)(C)C (stereo not drawn) [Example 23, N-benzyloxycarbonylphenylalanyl-[2-oxo-2-(pyrrolidin-2-yl)acetyl]-leucine t-butyl ester]
  pIC50: 8.52

## N-Benzyloxycarbonylphenylalanyl-[2 hydroxy-2-(pyrrolidin-2-yl)acetyl]-D-leucylvaline benzyl ester [Example 9]
Prolyl endopeptidase from porcine kidneys, substrate 0.1 mM, pH 7.5, 37° C., 30 min, absorbance 525 nm
  IC50 (concentration necessary for 50% inhibition): 2.4 ng/mL
